Measurements as given in the supplement of paper PMC10307832.

Columns and labels:
Assay in all cases: relative viability (nuclei count vs DMSO), 5 days (fraction); higher = more cells survive
RO-3306 + Pictilisib = compound: C1=CC2=C(C=CC(=C2)C=C3C(=O)NC(=NCC4=CC=CS4)S3)N=C1 [RO-3306] + CS(=O)(=O)N1CCN(Cc2cc3nc(-c4cccc5[nH]ncc45)nc(N4CCOCC4)c3s2)CC1 [Pictilisib] (partner 1 µM)
Method in brief: (§1)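 Relative viability divides the nuclei count in treated wells by that in vehicle wells. Lung cancer cell lines were seeded in 1536-well plates, dosed by pin tool the next day, and fixed and stained after 5 days in one step with final 0.05% Triton X-100, 1% formaldehyde and 1 ug/ml Hoechst. Dosing was a single drug or a fixed anchor-drug dose plus five library-drug doses (not always all listed) in √10 steps, and values are medians of duplicate plates imaged at 4×.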

RO-3306 + Linsitinib = compound: C1=CC2=C(C=CC(=C2)C=C3C(=O)NC(=NCC4=CC=CS4)S3)N=C1 [RO-3306] + C[C@]1(O)C[C@@H](c2nc(-c3ccc4ccc(-c5ccccc5)nc4c3)c3c(N)nccn32)C1 [Linsitinib] (partner 1 µM)
Method in brief: as §1

[1] = compound: O=S(=O)(c1ccccc1)N(CC(F)(F)F)c1ccc(C(O)(C(F)(F)F)C(F)(F)F)cc1 + COc1cc2c(Oc3ccc(NC(=O)C4(C(=O)Nc5ccc(F)cc5)CC4)cc3F)ccnc2cc1OCCCN1CCOCC1 [Foretinib] (partner 0.25 µM)
Method in brief: as §1

[2] = compound: O=S(=O)(c1ccccc1)N(CC(F)(F)F)c1ccc(C(O)(C(F)(F)F)C(F)(F)F)cc1 + COc1cccc2cc(-c3nc([C@H]4CC[C@H](C(=O)O)CC4)n4ncnc(N)c34)[nH]c12 [OSI-027] (partner 0.5 µM)
Method in brief: as §1

[3] = compound: O=S(=O)(c1ccccc1)N(CC(F)(F)F)c1ccc(C(O)(C(F)(F)F)C(F)(F)F)cc1 + N=C(N)NC(=N)NCCc1ccccc1 [Phenformin] (partner 250 µM)
Method in brief: as §1

Cell Line | relative viability (RO-3306 + Pictilisib; first compound 0.01 µM) | relative viability (RO-3306 + Pictilisib; first compound 0.03162 µM) | relative viability (RO-3306 + Pictilisib; first compound 0.1 µM) | relative viability (RO-3306 + Pictilisib; first compound 0.3162 µM) | relative viability (RO-3306 + Pictilisib; first compound 1 µM) | relative viability (RO-3306 + Linsitinib; first compound 0.01 µM) | relative viability (RO-3306 + Linsitinib; first compound 0.03162 µM) | relative viability (RO-3306 + Linsitinib; first compound 0.1 µM) | relative viability (RO-3306 + Linsitinib; first compound 0.3162 µM) | relative viability (RO-3306 + Linsitinib; first compound 1 µM) | relative viability ([1]; first compound 0.8 µM) | relative viability ([1]; first compound 2.53 µM) | relative viability ([1]; first compound 8 µM) | relative viability ([2]; first compound 0.8 µM) | relative viability ([2]; first compound 2.53 µM) | relative viability ([2]; first compound 8 µM) | relative viability ([3]; first compound 0.8 µM) | relative viability ([3]; first compound 2.53 µM) | relative viability ([3]; first compound 8 µM)
H3255 | 0.556 | 0.486 | 0.481 | 0.491 | 0.56 | 1.17 | 0.814 | 1.01 | 0.918 | 0.945 | 0.866 | 0.673 | 0.786 | 0.63 | 0.597 | 0.603 | 0.382 | 0.373 | 0.393
ABC-1 | 0.688 | 0.725 | 0.712 | 0.732 | 0.866 | 0.906 | 0.58 | 0.697 | 0.907 | 0.792 | 1.31 | 1.19 | 1.08 | 0.539 | 0.426 | 0.549 | 0.238 | 0.246 | 0.335
LXF-289 | 0.781 | 0.677 | 0.806 | 0.805 | 0.774 | 1.08 | 0.913 | 0.969 | 0.957 | 0.961 | 0.993 | 0.88 | 0.812 | 0.877 | 0.64 | 0.749 | 0.504 | 0.475 | 0.463
NCI-H1975 | 0.321 | 0.259 | 0.261 | 0.324 | 0.211 | 1.11 | 0.981 | 1.01 | 0.891 | 0.913 | 1.11 | 1.01 | 1.13 | 0.885 | 0.641 | 0.71 | 0.452 | 0.439 | 0.414
LCLC-97TM1 | – | 0.18 | 0.165 | 0.254 | 0.183 | – | 0.167 | 0.203 | 0.202 | 0.162 | 0.914 | 0.928 | 0.805 | 0.614 | 0.527 | 0.603 | 0.448 | 0.402 | 0.419
IA-LM | 0.339 | 0.242 | 0.311 | 0.278 | 0.36 | 0.559 | – | 0.56 | 0.571 | 0.809 | 1.08 | 1 | 1.12 | – | – | – | – | – | –
HCC-15 | 0.707 | 0.603 | 0.717 | 0.815 | 0.542 | 0.924 | 0.755 | 0.863 | 0.892 | 0.839 | 1.03 | 0.951 | 0.847 | 0.799 | 0.607 | 0.623 | 0.469 | 0.405 | 0.422
NCI-H647 | 0.326 | 0.464 | 0.401 | 0.454 | 0.299 | 1.43 | 1.07 | 1.21 | 1.29 | 1.07 | 1.48 | 1.19 | 1.03 | 0.592 | 0.498 | 0.681 | 0.502 | 0.552 | 0.455
NCI-H1993 | – | 0.956 | 0.686 | 0.743 | 0.897 | – | 0.711 | 0.678 | 0.732 | 0.695 | 0.681 | 0.726 | 0.679 | 0.58 | 0.341 | 0.552 | 0.522 | 0.529 | 0.469
